According to patent publication US8809306B2, “Combination andolast/glucocorticoids” (Rottapharm S.p.A., priority 2006, dated 2014):

Key:
[1] = test system: airway hyperresponsiveness; details: inhalation, 2 to 20 mg, mild-moderate asthmatic patients; AMP, exercise, UNDW, CAH; cited from earlier work
[2] = test system: T lymphocytes (Th2) production of IL-5; details: preliminary in-vivo data, atopic asthmatic patients; cited from earlier work
[3] = test system: airway response following specific antigen challenge; details: asthmatic patients; cited from earlier work
[4] = test system: airway hyperresponsiveness induced by Sephadex G100 particles; experiment: Sephadex G100-induced lung hyperresponsiveness in rats (bronchoconstriction by Ach); details: G-100 rats
[5] = test system: human B lymphocytes from allergic donors; details: cited from earlier work
[6] = test system: eosinophils in the bronchoalveolar lavage (BAL) fluids; experiment: Sephadex-induced eosinophilia: eosinophil counts in the BAL fluid

Row | Structure (SMILES) | airway hyperresponsiveness to specific and non-specific bronchostimulation challenges [1] | effect on Th2 production of IL-5 [2] | early and late airway response following specific antigen challenge [3] | Protective Effect (%) ([4]; Andolast 3 mg/kg i.m., calculated from Ach ED50) | Ach ED50 ([4]; Andolast 3 mg/kg i.m., dose of Ach i.v. producing 50% response) | effect on IL-4 dependent IgE synthesis [5] | counts of eosinophils in the BAL fluid ([6]; Andolast 3 mg/kg, Sephadex control 2.6×10^6) | Protective Effect (%) ([4]; Prednisolone 1 mg/kg orally) | Protective Effect (%) ([4]; Prednisolone 10 mg/kg orally) | counts of eosinophils in the BAL fluid ([6]; Prednisolone 1 mg/kg, Sephadex control 2.6×10^6, normal rats about 1×10^4) | eosinophilia in the BAL fluids, in words ([6]; Prednisolone 10 mg/kg)
1 | O=C(Nc1ccc(-c2nnn[nH]2)cc1)c1ccc(-c2nnn[nH]2)cc1 [Andolast, N-4-(5-tetrazolyl)-phenyl-4-(5-tetrazolyl)-benzamide] | prevents in a dose-dependent fashion | inhibitory effect | completely prevents | 33.3% | 0.20 mg/kg | potent inhibitory effect | 1.75×10^6 |  |  |  | 
2 | C[C@]12C=CC(=O)C=C1CC[C@@H]1[C@@H]2[C@@H](O)C[C@@]2(C)[C@H]1CC[C@]2(O)C(=O)CO [Prednisolone] |  |  |  |  |  |  |  | 11.1% | 88.8% | 2×10^6 | totally suppressed
